Source: PubChem BioAssay (NCI)
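Tested at 5 concentrations; 48 h exposure; 96-well plates; endpoints linearly interpolated, else capped at highest concentration. Definition used: TGI = concentration required for complete inhibition of growth.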

Assays:
Assay in all cases: growth of human tumour cells (NCI), 48 h
NCI/ADR-RES ovarian = tested on: NCI/ADR-RES ovarian
LOX IMVI melanoma = tested on: LOX IMVI melanoma
OVCAR-8 ovarian = tested on: OVCAR-8 ovarian
OVCAR-5 ovarian = tested on: OVCAR-5 ovarian
MALME-3M melanoma = tested on: MALME-3M melanoma
SF-295 CNS = tested on: SF-295 CNS
MOLT-4 leukemia = tested on: MOLT-4 leukemia
TK-10 renal = tested on: TK-10 renal
NCI-H522 lung = tested on: NCI-H522 lung
HT29 colon = tested on: HT29 colon
KM12 colon = tested on: KM12 colon
ACHN renal = tested on: ACHN renal
PC-3 prostate = tested on: PC-3 prostate
DU-145 prostate = tested on: DU-145 prostate
SK-MEL-5 melanoma = tested on: SK-MEL-5 melanoma
COLO 205 colon = tested on: COLO 205 colon
NCI-H23 lung = tested on: NCI-H23 lung
MDA-N = tested on: MDA-N
SN12C renal = tested on: SN12C renal
HCT-15 colon = tested on: HCT-15 colon
UACC-257 melanoma = tested on: UACC-257 melanoma
SNB-19 CNS = tested on: SNB-19 CNS
M14 melanoma = tested on: M14 melanoma
CAKI-1 renal = tested on: CAKI-1 renal
OVCAR-4 ovarian = tested on: OVCAR-4 ovarian
HOP-62 NSCLC = tested on: HOP-62 NSCLC
OVCAR-3 ovarian = tested on: OVCAR-3 ovarian
HOP-92 NSCLC = tested on: HOP-92 NSCLC
SNB-75 CNS = tested on: SNB-75 CNS
BT-549 breast = tested on: BT-549 breast
RPMI-8226 leukemia = tested on: RPMI-8226 leukemia
A549 NSCLC = tested on: A549 NSCLC
IGROV1 ovarian = tested on: IGROV1 ovarian
MDA-MB-231 breast = tested on: MDA-MB-231 breast
SF-268 CNS = tested on: SF-268 CNS
SK-OV-3 ovarian = tested on: SK-OV-3 ovarian
CCRF-CEM leukemia = tested on: CCRF-CEM leukemia
UACC-62 melanoma = tested on: UACC-62 melanoma
K-562 leukemia = tested on: K-562 leukemia
786-0 renal = tested on: 786-0 renal
SK-MEL-2 melanoma = tested on: SK-MEL-2 melanoma
RXF 393 renal = tested on: RXF 393 renal
HS 578T breast = tested on: HS 578T breast
NCI-H226 lung = tested on: NCI-H226 lung
U251 CNS = tested on: U251 CNS
EKVX NSCLC = tested on: EKVX NSCLC
SK-MEL-28 melanoma = tested on: SK-MEL-28 melanoma
T-47D breast = tested on: T-47D breast
SW-620 colon = tested on: SW-620 colon
MDA-MB-435 = tested on: MDA-MB-435
UO-31 renal = tested on: UO-31 renal
HCT-116 colon = tested on: HCT-116 colon
A498 renal = tested on: A498 renal
MCF7 breast = tested on: MCF7 breast
HCC-2998 colon = tested on: HCC-2998 colon
SF-539 CNS = tested on: SF-539 CNS
NCI-H460 lung = tested on: NCI-H460 lung

SMILES: C[C@@H](CO)C1=C(O)c2ccc3c(c2C(=O)C1=O)CCCC3(C)C
- TGI (NCI/ADR-RES ovarian): > 100 µM
- TGI (LOX IMVI melanoma): > 100 µM
- TGI (OVCAR-8 ovarian): > 100 µM
- TGI (OVCAR-5 ovarian): > 100 µM
- TGI (MALME-3M melanoma): 50 µM
- TGI (SF-295 CNS): > 100 µM
- TGI (MOLT-4 leukemia): > 100 µM
- TGI (TK-10 renal): > 100 µM
- TGI (NCI-H522 lung): 62.6 µM
- TGI (HT29 colon): > 100 µM
- TGI (KM12 colon): > 100 µM
- TGI (ACHN renal): 43.2 µM
- TGI (PC-3 prostate): > 100 µM
- TGI (DU-145 prostate): > 100 µM
- TGI (SK-MEL-5 melanoma): > 100 µM
- TGI (COLO 205 colon): > 100 µM
- TGI (NCI-H23 lung): 56.1 µM
- TGI (MDA-N): > 100 µM
- TGI (SN12C renal): > 100 µM
- TGI (HCT-15 colon): > 100 µM
- TGI (UACC-257 melanoma): > 100 µM
- TGI (SNB-19 CNS): 68.9 µM
- TGI (M14 melanoma): 40.6 µM
- TGI (CAKI-1 renal): > 100 µM
- TGI (OVCAR-4 ovarian): > 100 µM
- TGI (HOP-62 NSCLC): > 100 µM
- TGI (OVCAR-3 ovarian): > 100 µM
- TGI (HOP-92 NSCLC): > 100 µM
- TGI (SNB-75 CNS): > 100 µM
- TGI (BT-549 breast): > 100 µM
- TGI (RPMI-8226 leukemia): > 100 µM
- TGI (A549 NSCLC): > 100 µM
- TGI (IGROV1 ovarian): > 100 µM
- TGI (MDA-MB-231 breast): > 100 µM
- TGI (SF-268 CNS): > 100 µM
- TGI (SK-OV-3 ovarian): > 100 µM
- TGI (CCRF-CEM leukemia): 34 µM
- TGI (UACC-62 melanoma): 77.4 µM
- TGI (K-562 leukemia): > 100 µM
- TGI (786-0 renal): > 100 µM
- TGI (SK-MEL-2 melanoma): 84.7 µM
- TGI (RXF 393 renal): > 100 µM
- TGI (HS 578T breast): > 100 µM
- TGI (NCI-H226 lung): > 100 µM
- TGI (U251 CNS): > 100 µM
- TGI (EKVX NSCLC): > 100 µM
- TGI (SK-MEL-28 melanoma): > 100 µM
- TGI (T-47D breast): > 100 µM
- TGI (SW-620 colon): > 100 µM
- TGI (MDA-MB-435): > 100 µM
- TGI (UO-31 renal): > 100 µM
- TGI (HCT-116 colon): > 100 µM
- TGI (A498 renal): > 100 µM

SMILES: C#CCCCCC#Cc1ccccc1C(=O)C=[N+]=[N-]
- TGI (OVCAR-8 ovarian): > 100 µM
- TGI (OVCAR-5 ovarian): > 100 µM
- TGI (SF-295 CNS): > 100 µM
- TGI (MOLT-4 leukemia): > 100 µM
- TGI (TK-10 renal): > 100 µM
- TGI (NCI-H522 lung): > 100 µM
- TGI (HT29 colon): > 100 µM
- TGI (MCF7 breast): > 100 µM
- TGI (ACHN renal): > 100 µM
- TGI (PC-3 prostate): > 100 µM
- TGI (DU-145 prostate): > 100 µM
- TGI (SK-MEL-5 melanoma): > 100 µM
- TGI (COLO 205 colon): > 100 µM
- TGI (NCI-H23 lung): > 100 µM
- TGI (MDA-N): > 100 µM
- TGI (SN12C renal): > 100 µM
- TGI (HCT-15 colon): > 100 µM
- TGI (UACC-257 melanoma): > 100 µM
- TGI (SNB-19 CNS): > 100 µM
- TGI (M14 melanoma): > 100 µM
- TGI (CAKI-1 renal): > 100 µM
- TGI (OVCAR-4 ovarian): > 100 µM
- TGI (HOP-62 NSCLC): > 100 µM
- TGI (HCC-2998 colon): > 100 µM
- TGI (HOP-92 NSCLC): > 100 µM
- TGI (SNB-75 CNS): > 100 µM
- TGI (BT-549 breast): > 100 µM
- TGI (RPMI-8226 leukemia): > 100 µM
- TGI (A549 NSCLC): > 100 µM
- TGI (IGROV1 ovarian): > 100 µM
- TGI (MDA-MB-231 breast): > 100 µM
- TGI (SF-268 CNS): > 100 µM
- TGI (SK-OV-3 ovarian): > 100 µM
- TGI (UACC-62 melanoma): > 100 µM
- TGI (K-562 leukemia): > 100 µM
- TGI (786-0 renal): > 100 µM
- TGI (SK-MEL-2 melanoma): > 100 µM
- TGI (RXF 393 renal): > 100 µM
- TGI (SF-539 CNS): > 100 µM
- TGI (HS 578T breast): > 100 µM
- TGI (NCI-H226 lung): > 100 µM
- TGI (U251 CNS): > 100 µM
- TGI (EKVX NSCLC): > 100 µM
- TGI (SK-MEL-28 melanoma): > 100 µM
- TGI (T-47D breast): > 100 µM
- TGI (SW-620 colon): > 100 µM
- TGI (MDA-MB-435): > 100 µM
- TGI (NCI-H460 lung): > 100 µM
- TGI (UO-31 renal): > 100 µM
- TGI (HCT-116 colon): > 100 µM
- TGI (A498 renal): > 100 µM
